The target in assay [1] is CDC7 (Homo sapiens, UniProt O00311). The assay can be described thus: CDC7 inhibition, biochemical chemiluminescence assay (Kinase Glo, IC50 determination). Put shortly:
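CDC7 enzyme preincubated with compound 10 min at ambient temperature, then ATP mix in Tris Base added; reaction 90 min at 24-27 °C. Remaining ATP quantified by Kinase Glo luminescence to give IC50.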
On the technique in general: Kinase-Glo reads ATP consumption through a luciferase reaction.

In assay [2] the target is PIM (PIM-1, PIM-2, and/or PIM-3). As to the kind of experiment: PIM-1, PIM-2 and PIM-3 inhibition, biochemical chemiluminescence assays (Kinase Glo, IC50 determination). The following applies: Table 1 activity class; PIM refers to PIM-1, PIM-2, and/or PIM-3; read-out: PIM IC50 (Activity B).
In assay [3] the target is CK2 (Homo sapiens, UniProt P68400). The assay can be described thus: CK2 inhibition, biochemical chemiluminescence holoenzyme assay (Kinase Glo, IC50 determination). Put shortly:
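Holoenzyme CK2 assay; compounds pre-incubated with substrate and enzyme, then reacted 150 min at 24-27° C. Remaining ATP measured as luminescence with Kinase Glo, and IC50 derived from the signal.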

Where [4] appears, read: CDC7 IC50 (Activity A), Table 1 activity class, symbol given only if active.
Where [5] appears, read: Table 1 activity class, symbol given only if active, read-out: CK2 IC50 (Activity C).
The mark [6] stands for this setting: Table 1 activity class, symbol given only if active, read-out: CDC7 IC50 (Activity A).
Where [7] appears, read: compounds in Table 1, read-out: CDC7 IC50 value.

Structures are written as SMILES. Like-named read-outs stand apart in the source and are kept apart here.

One may read the IC50 as the midpoint of a concentration-inhibition curve.

Chain of CK2 (P68400 whole entry): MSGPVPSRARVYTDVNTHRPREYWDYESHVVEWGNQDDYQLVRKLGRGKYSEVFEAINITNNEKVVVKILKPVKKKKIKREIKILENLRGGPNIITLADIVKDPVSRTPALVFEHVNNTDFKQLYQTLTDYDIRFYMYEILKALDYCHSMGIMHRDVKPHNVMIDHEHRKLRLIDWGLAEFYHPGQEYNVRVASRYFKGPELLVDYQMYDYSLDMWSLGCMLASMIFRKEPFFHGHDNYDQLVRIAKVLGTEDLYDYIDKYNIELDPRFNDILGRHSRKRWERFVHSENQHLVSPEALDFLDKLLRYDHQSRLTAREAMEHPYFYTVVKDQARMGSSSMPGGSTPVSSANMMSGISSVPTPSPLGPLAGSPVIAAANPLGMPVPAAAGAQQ
Chain of CK2 (P67870 whole entry partner): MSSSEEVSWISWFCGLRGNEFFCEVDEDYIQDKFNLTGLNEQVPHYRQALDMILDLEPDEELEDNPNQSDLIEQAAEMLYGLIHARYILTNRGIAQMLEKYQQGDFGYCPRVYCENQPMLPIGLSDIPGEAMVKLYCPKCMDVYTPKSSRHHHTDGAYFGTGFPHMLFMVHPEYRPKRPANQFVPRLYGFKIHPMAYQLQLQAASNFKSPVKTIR
Chain of CDC7 (O00311 whole entry): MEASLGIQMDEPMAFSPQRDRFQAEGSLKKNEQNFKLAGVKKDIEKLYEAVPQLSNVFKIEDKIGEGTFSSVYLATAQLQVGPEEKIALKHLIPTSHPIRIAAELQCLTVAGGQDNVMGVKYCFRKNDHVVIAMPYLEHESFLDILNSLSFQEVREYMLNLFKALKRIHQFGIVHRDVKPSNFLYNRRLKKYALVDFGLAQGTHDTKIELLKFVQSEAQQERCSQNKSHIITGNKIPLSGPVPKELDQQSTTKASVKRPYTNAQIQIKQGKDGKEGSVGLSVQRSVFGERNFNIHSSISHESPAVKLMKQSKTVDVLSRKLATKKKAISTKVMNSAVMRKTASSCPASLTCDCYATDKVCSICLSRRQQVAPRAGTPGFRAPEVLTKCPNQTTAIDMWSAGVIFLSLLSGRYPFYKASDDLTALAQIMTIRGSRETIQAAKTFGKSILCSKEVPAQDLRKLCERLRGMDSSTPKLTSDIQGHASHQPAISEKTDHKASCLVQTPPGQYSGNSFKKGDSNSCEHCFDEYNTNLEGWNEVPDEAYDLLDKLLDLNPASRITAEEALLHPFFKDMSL
Chain of CDC7 (Q9UBU7 whole entry partner): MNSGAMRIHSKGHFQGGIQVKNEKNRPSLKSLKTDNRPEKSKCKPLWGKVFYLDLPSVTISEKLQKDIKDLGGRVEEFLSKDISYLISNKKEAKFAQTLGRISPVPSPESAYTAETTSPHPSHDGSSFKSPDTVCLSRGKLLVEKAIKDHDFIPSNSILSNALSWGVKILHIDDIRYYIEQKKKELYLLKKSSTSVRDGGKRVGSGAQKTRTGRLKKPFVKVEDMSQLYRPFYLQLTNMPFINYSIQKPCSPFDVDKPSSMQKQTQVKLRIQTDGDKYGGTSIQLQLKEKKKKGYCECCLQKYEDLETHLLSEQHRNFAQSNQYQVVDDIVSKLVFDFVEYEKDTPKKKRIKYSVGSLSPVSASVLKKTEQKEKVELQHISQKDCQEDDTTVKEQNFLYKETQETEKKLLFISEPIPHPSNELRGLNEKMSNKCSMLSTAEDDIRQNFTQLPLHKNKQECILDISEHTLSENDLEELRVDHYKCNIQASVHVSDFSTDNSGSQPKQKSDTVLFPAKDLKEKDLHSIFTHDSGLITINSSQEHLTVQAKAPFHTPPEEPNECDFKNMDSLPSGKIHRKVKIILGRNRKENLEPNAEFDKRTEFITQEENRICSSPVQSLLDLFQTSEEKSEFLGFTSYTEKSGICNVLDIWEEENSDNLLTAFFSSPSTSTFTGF

Consider `O=c1[nH]c(CN2C3CCC2CC(O)C3)nc2c1oc1ccc(Br)cc12` (stereo not shown) [Compound 398, 8-bromo-2-[(3-hydroxy-8-azabicyclo[3.2.1]oct-8-yl)methyl][1]benzofuro[3,2-d]pyrimidin-4(3H)-one], for which the IC50 in assay [1] (setting [4]), in assay [2] and in assay [3] was under 10 µM throughout.
As to `O=c1[nH]c(CN2CC3CCC2C3)nc2c1oc1ccc(Br)cc12` (stereo not shown) [Compound 520, 2-(2-azabicyclo[2.2.1]hept-2-ylmethyl)-8-bromo[1]benzofuro[3,2-d]pyrimidin-4(3H)-one], the IC50 in assay [1] (setting [4]) is under 10 µM; in assay [1] (CDC7 IC50 value, compounds in Table 1) it was under 0.1 µM; in assay [2] it was under 10 µM; in assay [3] (setting [5]) it was under 10 µM.
As for `O=c1[nH]c(-c2ccncc2Br)nc2c1oc1ccc(Br)cc12` [Compound 43, 8-bromo-2-(3-bromopyridin-4-yl)[1]benzofuro[3,2-d]pyrimidin-4(3H)-one], the IC50 in assay [1] (setting [6]), in assay [2] and in assay [3] (setting [5]) was under 10 µM each time.
In the case of `Cc1cc2oc3c(=O)[nH]c(CN4CC[C@H](O)C4)nc3c2cc1Br` [Compound 420, 8-bromo-2-{[(3S)-3-hydroxypyrrolidin-1-yl]methyl}-7-methyl[1]benzofuro[3,2-d]pyrimidin-4(3H)-one], the IC50 in assay [1] (setting [6]), in assay [2] and in assay [3] (setting [5]) was under 10 µM each time.
`CN1CCCC1c1nc2c(oc3ccc(Br)cc32)c(=O)[nH]1` (stereo not shown) [Compound 273, 8-Bromo-2-(1-methylpyrrolidin-2-yl)[1]benzofuro[3,2-d]pyrimidin-4(3H)-one]: the IC50 in assay [1] (setting [6]) is under 10 µM; in assay [1] (setting [7]), under 0.1 µM; in assay [2], under 10 µM; in assay [3] (setting [5]), under 10 µM.
On to `NCCNc1nc2c(oc3ccc(Br)cc32)c(=O)[nH]1` [Compound 231, 2-[(2-aminoethyl)amino]-8-bromo[1]benzofuro[3,2-d]pyrimidin-4(3H)-one], for which the IC50 in assay [1] (setting [6]) was under 10 µM; in assay [1] (setting [7]) it was under 0.1 µM; in assay [2], under 10 µM; in assay [3] (setting [5]), under 10 µM.
In the case of `Nc1n[nH]c2ccc(-c3nc4c(oc5ccc(Br)cc54)c(=O)[nH]3)cc12` [Compound 220, 2-(3-amino-1H-indazol-5-yl)-8-bromo[1]benzofuro[3,2-d]pyrimidin-4(3H)-one], the IC50 in assay [1] (setting [6]), in assay [2] and in assay [3] (setting [5]) was under 10 µM each time.
As for `O=c1[nH]c([C@@H]2CCCN2)nc2c1oc1ccc(Br)cc12` [Compound 470, 8-bromo-2-[(2S)-pyrrolidin-2-yl][1]benzofuro[3,2-d]pyrimidin-4(3H)-one], the IC50 in assay [1] (setting [6]) was under 10 µM; in assay [1] (setting [7]) it was under 0.1 µM; in assay [2], under 10 µM; in assay [3] (setting [5]), under 10 µM.
For the compound `CC(C)[C@H](N)c1nc2c(oc3ccc(Br)cc32)c(=O)[nH]1` [Compound 540, 2-[(1S)-1-amino-2-methylpropyl]-8-bromo[1]benzofuro[3,2-d]pyrimidin-4(3H)-one], the IC50 in assay [1] (setting [6]) was under 10 µM; in assay [1] (setting [7]) it was under 0.1 µM; in assay [2] it was under 10 µM; in assay [3] (setting [5]), under 10 µM.
For `O=c1[nH]c(CN2CC[C@H](O)C2)nc2c1oc1ccc(NCCc3cccc(Cl)c3)cc12` [Compound 444, 8-{[2-(3-chlorophenyl)ethyl]amino}-2-{[(3S)-3-hydroxypyrrolidin-1-yl]methyl}[1]benzofuro[3,2-d]pyrimidin-4(3H)-one], the IC50 in assay [1] (setting [6]), in assay [2] and in assay [3] (setting [5]) was under 10 µM throughout.
Consider `CC1(C)CC[C@@H](c2nc3c(oc4ccc(Br)cc43)c(=O)[nH]2)N1` [Compound 515, 8-bromo-2-[(2S)-5,5-dimethylpyrrolidin-2-yl][1]benzofuro[3,2-d]pyrimidin-4(3H)-one], for which the 50% inhibitory concentration (IC50) in assay [1] (setting [6]) was under 10 µM; in assay [1] (setting [7]), under 0.1 µM; in assay [2], under 10 µM; in assay [3] (setting [5]), under 10 µM.
`CC(N)c1nc2c(oc3ccc(Br)cc32)c(=O)[nH]1` (stereo not shown) [Compound 175, 2-(1-aminoethyl)-8-bromo[1]benzofuro[3,2-d]pyrimidin-4(3H)-one]: the IC50 was under 10 µM in assay [1] (setting [6]), under 0.1 µM in assay [1] (setting [7]), under 10 µM in assay [2] and under 10 µM in assay [3] (setting [5]).
In the case of `CNCc1nc2c(oc3ccc(Br)cc32)c(=O)[nH]1` [Compound 516, 8-bromo-2-[(methylamino)methyl][1]benzofuro[3,2-d]pyrimidin-4(3H)-one], the IC50 in assay [1] (setting [6]) is under 10 µM; in assay [1] (setting [7]) it was under 0.1 µM; in assay [2] it was under 10 µM; in assay [3] (setting [5]), under 10 µM.
On to `N[C@@H](c1ccccc1)c1nc2c(oc3ccc(Br)cc32)c(=O)[nH]1` [Compound 489, 2-[(S)-amino(phenyl)methyl]-8-bromo[1]benzofuro[3,2-d]pyrimidin-4(3H)-one], for which the IC50 in assay [1] (setting [6]) is under 10 µM; in assay [1] (setting [7]), under 0.1 µM; in assay [2] it was under 10 µM; in assay [3] (setting [5]), under 10 µM.
Regarding `CN(C)CCNc1cc(-c2nc3c(oc4ccc(Br)cc43)c(=O)[nH]2)c(Cl)cn1` [Compound 283, 8-bromo-2-(5-chloro-2-{[2-(dimethylamino)ethyl]amino}pyridin-4-yl)[1]benzofuro[3,2-d]pyrimidin-4(3H)-one], the IC50 in assay [1] (setting [6]), in assay [2] and in assay [3] (setting [5]) was under 10 µM in each case.
`O=c1[nH]c(CN2CC[C@H](O)C2)nc2c1oc1ccc(Cl)cc12` [Compound 429, 8-chloro-2-{[(3S)-3-hydroxypyrrolidin-1-yl]methyl}[1]benzofuro[3,2-d]pyrimidin-4(3H)-one]: the IC50 is under 10 µM in assay [1] (setting [6]), under 0.1 µM in assay [1] (setting [7]), under 10 µM in assay [2] and under 10 µM in assay [3] (setting [5]).
For `O=C(Nc1ccc(-c2nc3c(oc4ccc(Br)cc43)c(=O)[nH]2)c(Cl)c1)c1ccon1` [Compound 363, N-[4-(8-bromo-4-oxo-3,4-dihydro[1]benzofuro[3,2-d]pyrimidin-2-yl)-3-chlorophenyl]isoxazole-3-carboxamide], the IC50 in assay [1] (setting [6]), in assay [2] and in assay [3] (setting [5]) was under 10 µM in each case.
For `O=c1[nH]c([C@@H]2C=CCN2)nc2c1oc1ccc(Br)cc12` [Compound 505, 8-bromo-2-[(2S)-2,5-dihydro-1H-pyrrol-2-yl][1]benzofuro[3,2-d]pyrimidin-4(3H)-one], the IC50 in assay [1] (setting [6]) was under 10 µM; in assay [1] (setting [7]) it was under 0.1 µM; in assay [2], under 10 µM; in assay [3] (setting [5]) it was under 10 µM.
`O=c1[nH]c(CN2C[C@@H](O)[C@@H](O)C2)nc2c1oc1ccc(Br)cc12` [Compound 348, 8-bromo-2-{[cis-3,4-dihydroxypyrrolidin-1-yl]methyl}[1]benzofuro[3,2-d]pyrimidin-4(3H)-one]: the IC50 is under 10 µM in assay [1] (setting [6]), under 0.1 µM in assay [1] (setting [7]), under 10 µM in assay [2] and under 10 µM in assay [3] (setting [5]).
On to `O=C1CC[C@@H](c2nc3c(oc4ccc(Br)cc43)c(=O)[nH]2)N1` [Compound 523, 8-bromo-2-[(2S)-5-oxopyrrolidin-2-yl][1]benzofuro[3,2-d]pyrimidin-4(3H)-one], for which the IC50 in assay [1] (setting [6]) was under 10 µM; in assay [1] (setting [7]) it was under 0.1 µM; in assay [2], under 10 µM; in assay [3] (setting [5]) it was under 10 µM.
For the compound `NC1CCC(c2nc3c(oc4ccc(Br)cc43)c(=O)[nH]2)CC1` (stereo not shown) [Compound 223, 2-(4-Aminocyclohexyl)-8-bromo[1]benzofuro[3,2-d]pyrimidin-4(3H)-one], the IC50 in assay [1] (setting [6]) is under 10 µM; in assay [1] (setting [7]) it was under 0.1 µM; in assay [2], under 10 µM; in assay [3] (setting [5]) it was under 10 µM.
`COc1cccc2oc3c(=O)[nH]c(CN4CC[C@H](O)C4)nc3c12` [Compound 448, 2-{[(3S)-3-hydroxypyrrolidin-1-yl]methyl}-9-(methyloxy)[1]benzofuro[3,2-d]pyrimidin-4(3H)-one]: the 50% inhibitory concentration (IC50) in assay [1] (setting [6]), in assay [2] and in assay [3] (setting [5]) was under 10 µM in each case.
On to `COc1ccc2oc3c(=O)[nH]c(-c4ccc(NCC5CCNCC5)cc4Cl)nc3c2c1` [Compound 138, 2-{2-chloro-4-[(piperidin-4-ylmethyl)amino]phenyl}-8-(methyloxy)[1]benzofuro[3,2-d]pyrimidin-4(3H)-one], for which the IC50 in assay [1] (setting [6]), in assay [2] and in assay [3] (setting [5]) was under 10 µM throughout.
As for `O=c1[nH]c(CN2CC[C@H](CO)C2)nc2c1oc1ccc(Br)cc12` [Compound 498, 8-bromo-2-{[(3S)-3-(hydroxymethyl)pyrrolidin-1-yl]methyl}[1]benzofuro[3,2-d]pyrimidin-4(3H)-one], the IC50 in assay [1] (setting [6]) is under 10 µM; in assay [1] (setting [7]) it was under 0.1 µM; in assay [2], under 10 µM; in assay [3] (setting [5]) it was under 10 µM.
`O=c1[nH]c(CNc2cccnc2)nc2c1oc1ccc(Br)cc12` [Compound 13, 8-bromo-2-[(pyridin-3-ylamino)methyl][1]benzofuro[3,2-d]pyrimidin-4(3H)-one]: the IC50 in assay [1] (setting [6]), in assay [2] and in assay [3] (setting [5]) was under 10 µM throughout.
Take `O=c1[nH]c(CN2CCC(CO)C2)nc2c1oc1ccc(Br)cc12` (stereo not shown) [Compound 287, 8-bromo-2-{[3-(hydroxymethyl)pyrrolidin-1-yl]methyl}[1]benzofuro[3,2-d]pyrimidin-4(3H)-one]: the IC50 was under 10 µM in assay [1] (setting [6]), under 0.1 µM in assay [1] (setting [7]), under 10 µM in assay [2] and under 10 µM in assay [3] (setting [5]).

Values taken from patent publication US20090247559A1 (Exelixis, Inc., priority 2007, published 2009).
